In patent US7786141B2 (Vertex Pharmaceuticals Incorporated, priority 2004, dated 2010):
Like-named read-outs stand apart in the source and are kept apart here.

How the values were obtained:
M4 muscarinic receptor = biological target: T1, M4 muscarinic receptor (Homo sapiens, UniProt P08173); assay: Functional mobilization of intracellular calcium (FLIPR) in M4-CHO cells; assay type: cell-based
T1 construct: expressed in transfected cells; host or cells: CHO (M4-CHO)
T1 sequence (P08173 1-479): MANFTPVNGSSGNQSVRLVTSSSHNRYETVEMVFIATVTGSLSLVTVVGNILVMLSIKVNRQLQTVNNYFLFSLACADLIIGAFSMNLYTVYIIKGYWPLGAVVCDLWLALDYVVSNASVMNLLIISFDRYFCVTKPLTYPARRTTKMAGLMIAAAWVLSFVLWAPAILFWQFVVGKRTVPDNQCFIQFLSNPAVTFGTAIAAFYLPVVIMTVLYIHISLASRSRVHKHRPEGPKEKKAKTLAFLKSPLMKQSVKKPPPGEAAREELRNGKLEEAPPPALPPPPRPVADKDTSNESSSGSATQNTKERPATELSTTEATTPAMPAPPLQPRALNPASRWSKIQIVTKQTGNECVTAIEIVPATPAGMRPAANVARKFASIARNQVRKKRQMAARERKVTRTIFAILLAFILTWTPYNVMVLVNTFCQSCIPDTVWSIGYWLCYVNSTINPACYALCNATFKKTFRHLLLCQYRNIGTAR
Method in brief: (§1)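 FLIPR Ca2+ read, ex 488/em 540 nm, 60 s. Recombinant CHO lines (M1 or M4), dye-loaded Fluo-3 AM 60-90 min at 37° C, probenecid 1 mM, pH 7.4. Agonist: compound alone; inhibition: 15 min compound pre-incubation, then carbachol at EC80 for that subtype.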

M1 muscarinic receptor = biological target: T2, M1 muscarinic receptor (Homo sapiens, UniProt P11229); assay: Functional mobilization of intracellular calcium (FLIPR) in M1-CHO cells; assay type: cell-based
T2 construct: expressed in transfected cells; host or cells: CHO (M1-CHO)
T2 sequence (P11229 1-460): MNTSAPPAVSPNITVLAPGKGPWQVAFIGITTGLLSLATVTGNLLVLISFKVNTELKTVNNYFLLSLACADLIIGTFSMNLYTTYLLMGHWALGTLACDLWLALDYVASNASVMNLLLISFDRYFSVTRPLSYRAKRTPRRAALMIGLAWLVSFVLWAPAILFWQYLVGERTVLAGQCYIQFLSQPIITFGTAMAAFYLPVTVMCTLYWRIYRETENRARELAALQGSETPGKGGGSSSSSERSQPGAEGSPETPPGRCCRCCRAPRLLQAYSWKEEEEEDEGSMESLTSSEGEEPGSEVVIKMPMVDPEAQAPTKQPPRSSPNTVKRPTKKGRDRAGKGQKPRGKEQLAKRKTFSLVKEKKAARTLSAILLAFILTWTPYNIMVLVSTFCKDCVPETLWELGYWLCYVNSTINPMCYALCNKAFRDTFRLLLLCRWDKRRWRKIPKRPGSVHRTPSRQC
Method in brief: as §1

[1] = M4 receptor, calcium mobilization
[2] = M4 receptor, calcium mobilization, read-out: M4 Efficacy
[3] = M1 receptor, calcium mobilization
[4] = M1 receptor, calcium mobilization, read-out: M1 Efficacy
[5] = M4-CHO cells, calcium mobilization (FLIPR)
[6] = M4-CHO cells, calcium mobilization (FLIPR), read-out: M4 Efficacy
[7] = M1-CHO cells, calcium mobilization (FLIPR)
[8] = M1-CHO cells, calcium mobilization (FLIPR), read-out: M1 Efficacy
[9] = Table 4, 100% efficacy is the maximum response obtained with the Carbachol control
[10] = Table 4, modulating M4 receptor
[11] = Table 4, modulating M1 receptor
[12] = 100% efficacy is the maximum response obtained with the Carbachol control, Table 5
[13] = Table 4, M4 receptor, calcium mobilization (FLIPR)
[14] = Table 4, M1 receptor, calcium mobilization (FLIPR)

Compound	M4 Activity (M4 muscarinic receptor; [1])	Emax (M4 muscarinic receptor; [2]) [%]	M1 Activity (M1 muscarinic receptor; [3])	Emax (M1 muscarinic receptor; [4]) [%]	Emax (M4 muscarinic receptor; [9]) [%]	Emax (M1 muscarinic receptor; [9]) [%]	also measured
CC(=O)N1CC2(CCN(CC3CC4CCC3C4)CC2)c2cc(C)ccc21 (stereo not shown) [compound 118]	x (activity was measured to be greater than 1.0 μM)	< 65	xxx (activity was measured to be less than 0.1 μM)	65 to 85			
CCOC(=O)N1CCC(N2CCC3(CC2)CN(C(=O)N(C)C)c2ccc(F)cc23)CC1 [compound 39]	xx (activity was measured to be between 0.1 μM and 1.0 μM)	> 85	xxx (activity was measured to be less than 0.1 μM)	65 to 85			
CCOC(=O)N1C2CCC1CC(N1CCC3(CC1)CN(C(C)=O)c1ccc(Cl)cc13)C2 (stereo not shown) [compound 417]							EC50 (M4 muscarinic receptor; [5]): > 1 µM; Emax (M4 muscarinic receptor; [6]): < 65%; EC50 (M1 muscarinic receptor; [7]): 0.1 to 1 µM; Emax (M1 muscarinic receptor; [8]): < 65%
CCCCOC(=O)N1CC2(CCN(C3CCN(C(=O)OCC)CC3)CC2)c2cc(F)ccc21 [compound 220]	x (activity was measured to be greater than 1.0 μM)	< 65	x (activity was measured to be greater than 1.0 μM)	65 to 85			
CC#CC(C)OC(=O)N1CCC(N2CCC3(CC2)CN(C(=O)N(C)C)c2ccc(F)cc23)CC1 (stereo not shown) [compound 614]					25 to 100	25 to 100	M4 Activity (M4 muscarinic receptor; [10]): xxx (activity was measured to be less than 2.0 μM); M1 Activity (M1 muscarinic receptor; [11]): xxx (activity was measured to be less than 2.0 μM)
COc1cccc(C(=O)N2CCC(N3CCC4(CC3)CN(C(=O)N(C)C)c3ccc(F)cc34)CC2)c1 [compound 770]					< 25	25 to 100	M4 Activity (M4 muscarinic receptor; [10]): xx (activity was measured to be between 2.0 μM and 5.0 μM); M1 Activity (M1 muscarinic receptor; [11]): xxx (activity was measured to be less than 2.0 μM)
CN(C)C(=O)N1CC2(CCN(C3CCN(c4ccsc4)CC3)CC2)c2cc(F)ccc21 [compound 1041]							Emax (M4 muscarinic receptor; [12]): 25 to 100%; EC50 (M4 muscarinic receptor; CHO cells expressing M4, calcium mobilization, Table 5): 2 to 10 µM; Emax (M1 muscarinic receptor; [12]): 25 to 100%; EC50 (M1 muscarinic receptor; CHO cells expressing M1, calcium mobilization, Table 5): 2 to 10 µM
CC(=O)NC1CC2(CCN(C[C@@H]3C[C@H]4C=C[C@H]3C4)CC2)c2ccccc21 (stereo partly shown) [compound 408]							EC50 (M4 muscarinic receptor; [5]): < 0.1 µM; Emax (M4 muscarinic receptor; [6]): 65 to 85%; EC50 (M1 muscarinic receptor; [7]): < 0.1 µM; Emax (M1 muscarinic receptor; [8]): 65 to 85%
CCC(C)(C)C1CCC(N2CCC3(CC2)CN(C(C)=O)c2ccc(F)cc23)CC1 (stereo not shown) [compound 892]					< 25	< 25	M4 Activity (M4 muscarinic receptor; [13]): x (activity was measured to be greater than 5.0 μM); M1 Activity (M1 muscarinic receptor; [14]): x (activity was measured to be greater than 5.0 μM)
CN(C)C(=O)N1CC2(CCN(C3CCN(c4ncnc5ccsc45)CC3)CC2)c2cc(F)ccc21 [compound 965]					25 to 100	25 to 100	M4 Activity (M4 muscarinic receptor; [13]): xxx (activity was measured to be less than 2.0 μM); M1 Activity (M1 muscarinic receptor; [14]): x (activity was measured to be greater than 5.0 μM)
Cc1noc(C)c1C(=O)N1CCC(N2CCC3(CC2)CN(C(=O)N(C)C)c2ccc(F)cc23)CC1 [compound 572]					< 25	25 to 100	M4 Activity (M4 muscarinic receptor; [10]): x (activity was measured to be greater than 5.0 μM); M1 Activity (M1 muscarinic receptor; [11]): xx (activity was measured to be between 2.0 μM and 5.0 μM)
COc1cc2c(cc1OC)C1(CCN(C3CCCCCCCCCCC3)CC1)C[C@@H]2NC(C)=O [compound 599]					25 to 100	25 to 100	M4 Activity (M4 muscarinic receptor; [10]): x (activity was measured to be greater than 5.0 μM); M1 Activity (M1 muscarinic receptor; [11]): x (activity was measured to be greater than 5.0 μM)
CCOC(=O)N1CCC(N2CCC3(CC2)CN(C(=O)C(C)(C)C)c2ccc(F)cc23)CC1 [compound 282]	xx (activity was measured to be between 0.1 μM and 1.0 μM)	65 to 85	xxx (activity was measured to be less than 0.1 μM)	< 65			
CC(=O)N1CC2(CCN(CC3CCCCC3)CC2)c2cc(F)ccc21 [compound 393]							EC50 (M4 muscarinic receptor; [5]): > 1 µM; Emax (M4 muscarinic receptor; [6]): < 65%; EC50 (M1 muscarinic receptor; [7]): < 0.1 µM; Emax (M1 muscarinic receptor; [8]): 65 to 85%
CCNC(=O)N1CC2(CCN(C3CCN(C(=O)OCC)CC3)CC2)c2ccccc21 [compound 944]					25 to 100	25 to 100	M4 Activity (M4 muscarinic receptor; [13]): xxx (activity was measured to be less than 2.0 μM); M1 Activity (M1 muscarinic receptor; [14]): xxx (activity was measured to be less than 2.0 μM)
Fc1ccc2c(c1)C1(CCN(C3CC4CCC3C4)CC1)CN2 (stereo not shown) [compound 416]							EC50 (M4 muscarinic receptor; [5]): > 1 µM; Emax (M4 muscarinic receptor; [6]): < 65%; EC50 (M1 muscarinic receptor; [7]): > 1 µM; Emax (M1 muscarinic receptor; [8]): < 65%
CC(=O)N1CC2(CCN(C3CC4CCC(C4)C3)CC2)c2cc(F)ccc21 (stereo not shown) [compound 35]	xx (activity was measured to be between 0.1 μM and 1.0 μM)	> 85	xxx (activity was measured to be less than 0.1 μM)	> 85			
CC(=O)N[C@H]1CCC2(CCN(CCCC3CCCCC3)CC2)c2ccccc21 [compound 452]					< 25	25 to 100	M4 Activity (M4 muscarinic receptor; [10]): x (activity was measured to be greater than 5.0 μM); M1 Activity (M1 muscarinic receptor; [11]): xxx (activity was measured to be less than 2.0 μM)
CCOC(=O)C1CCC(N2CCC3(CC2)CN(C(C)=O)c2ccc(F)cc23)CC1 (stereo not shown) [compound 228]	x (activity was measured to be greater than 1.0 μM)	< 65	x (activity was measured to be greater than 1.0 μM)	< 65			
O=C(O[C@@H]1CCOC1)N1C2CCC1CC(N1CCC3(CCc4ccccc43)CC1)C2 (stereo partly shown) [compound 43]	x (activity was measured to be greater than 1.0 μM)	> 85	xxx (activity was measured to be less than 0.1 μM)	> 85			
CCCOC(=O)N1CCC(N2CCC3(CC2)CN(C(C)=O)c2ccc(F)cc23)CC1 [compound 79]	x (activity was measured to be greater than 1.0 μM)	< 65	xx (activity was measured to be between 0.1 μM and 1.0 μM)	< 65			
C#CCOC(=O)N1CCC(N2CCC3(CC2)CN(C(C)=O)c2ccccc23)CC1 [compound 947]					25 to 100	> 100	M4 Activity (M4 muscarinic receptor; [13]): xxx (activity was measured to be less than 2.0 μM); M1 Activity (M1 muscarinic receptor; [14]): xxx (activity was measured to be less than 2.0 μM)
CCCOC(=O)N1C2CCC1CC(N1CCC3(CC1)CN(C(=O)C1CC1)c1ccc(F)cc13)C2 (stereo not shown) [compound 389]							EC50 (M4 muscarinic receptor; [5]): > 1 µM; Emax (M4 muscarinic receptor; [6]): < 65%; EC50 (M1 muscarinic receptor; [7]): 0.1 to 1 µM; Emax (M1 muscarinic receptor; [8]): 65 to 85%
CC(=O)N1CC2(CCN(C3CC4CCC(C3)N4C(=O)OC(C)C)CC2)c2cc(F)ccc21 (stereo not shown) [compound 94]	xx (activity was measured to be between 0.1 μM and 1.0 μM)	< 65	xxx (activity was measured to be less than 0.1 μM)	< 65			
OC1CC2(CCN([C@@H]3C[C@H]4CC[C@@H]3C4)CC2)c2ccccc21 (stereo partly shown) [compound 536]					25 to 100	25 to 100	M4 Activity (M4 muscarinic receptor; [10]): xxx (activity was measured to be less than 2.0 μM); M1 Activity (M1 muscarinic receptor; [11]): xxx (activity was measured to be less than 2.0 μM)
Cc1cc(C(=O)N2CCC(N3CCC4(CC3)CN(C(=O)N(C)C)c3ccc(F)cc34)CC2)no1 [compound 804]					< 25	< 25	M4 Activity (M4 muscarinic receptor; [13]): x (activity was measured to be greater than 5.0 μM); M1 Activity (M1 muscarinic receptor; [14]): x (activity was measured to be greater than 5.0 μM)
CC#CCOC(=O)N1CC[C@H](CN2CCC3(CC2)CN(C(C)=O)c2ccccc23)C1 [compound 637]					25 to 100	> 100	M4 Activity (M4 muscarinic receptor; [10]): xxx (activity was measured to be less than 2.0 μM); M1 Activity (M1 muscarinic receptor; [11]): xxx (activity was measured to be less than 2.0 μM)
CCC#CCOC(=O)N1CC[C@H](CN2CCC3(CC2)CN(C(C)=O)c2cccc(C)c23)C1 [compound 455]					25 to 100	25 to 100	M4 Activity (M4 muscarinic receptor; [10]): xxx (activity was measured to be less than 2.0 μM); M1 Activity (M1 muscarinic receptor; [11]): xxx (activity was measured to be less than 2.0 μM)
